# Measurements reported in patent US11274091B2 (Dizal (Jiangsu) Pharmaceutical Co., Ltd., priority 2018, dated 2022).
# Tests used:
# human TRPC3 ion channel = human TRPC3 ion channel (Homo sapiens (Human), UniProt Q13507); experiment: Inhibition of TRPC3 FLIPR Assay (membrane potential dye, OAG challenge); format: cell-based; settings: TRPC3 transfected AD293 cells, OAG at EC80; most potent isolated isomer; mean of minimum 2 experiments
# Excerpt: (§1) TRPC3 and TRPC6 channel opening causes an influx of predominantly calcium and sodium cations that result in a change in the electrical potential across the cell membrane. This change in membrane potential can be monitored using membrane potential dyes in the following FLIPR™ (Fluorescent Imaging Plate Reader) assays.
# AD293 cells were transfected using the PLVX-puro lentivirus vector containing the coding sequence of the human TRPC3 ion channel. Puromycin-resistant cells were selected by treating with […] puromycin for two weeks. Monoclonal cells were obtained by limiting dilution and compared for their response to OAG in a membrane potential assay. The cells were grown in DMEM+10% fetal bovine serum (FBS)+1 μg/mL puromycin as culture medium.
# TRPC3 cells were plated at 9K/well into 384-well polystyrene plates. Cells were grown for 24 h at 37° C. plus 5% CO2 after which media was aspirated using a Tecan plate washer and replaced with 40 μL of dye loading buffer (130 mM NaCl, 5 mM KCl, 0.15 mM CaCl2, 1 mM MgCl2, 20 mM HEPES ((4-(2-hydroxyethyl)-1-piperazineethanesulfonic acid)), 5 mM NaHCO3). For TRPC3 a final concentration of 0.5× membrane potential dye (Molecular Devices Membrane Blue, FLIPR Membrane Potential Assay Kit (bulk), Product #R8034(BLUE), Molecular Devices, Sunnyvale, Calif., 94089, USA) was used. Cells with membrane potential dye were then incubated for 30 mins at room temperature prior to beginning the experiments.
# To test the effects of compounds on TRPC3 activity, compounds were first diluted in 100% DMSO to 3× the final concentration to be used in the experiments. Typical dose-response experiments ranged from 10 μM (top concentration) to 0.5 nM (lowest concentration). Ten microliters of 5× compound in 0.5% DMSO were added to 40 μL of cells incubated with membrane potential dye. Compound addition was performed on a FLIPRTetra or a FLIPR 384 (MDS Analytical Technologies). After a 400 second incubation with compound, 12.5 μL of OAG was added at 5× the EC80 (typical EC80 for TRPC3=2 μM final). The OAG challenge is designed to measure the inhibitory activity of compounds on receptor-operated TRPC3 activation.
# (§2) All data was normalized to low controls (buffer alone) or high controls (OAG EC100). Data was analyzed using an XC50 curve fitting module and reported as pIC50 or IC50 values. The values are averaged to determine a mean value, for a minimum of 2 experiments.
# human TRPC6 ion channel = human TRPC6 ion channel (Homo sapiens (Human), UniProt Q9Y210); experiment: Inhibition of TRPC6 FLIPR Assay (membrane potential dye, OAG challenge); format: cell-based; settings: TRPC6-HEK293 cells, OAG at EC80; most potent isolated isomer; mean of minimum 2 experiments
# Excerpt: as §1
# TRPC6-HEK293 was purchased from PerkinElmer (PerkinElmer, Product No.: AX-012-C), HEK293 cells were transfected using the pcDNA3.1(+)expression vector containing the coding sequence of the human TRPC6 ion channel. The coding sequence used is identical to coding sequence of GenBank NM_004621 with the exception of 2 synonym variations (t1683c and c2529t). The cells were grown in DMEM+10% fetal bovine serum (FBS) 0.5 mg/ml. Geneticin (ion channel expression selection) as culture medium.
# TRPC6 cells were plated at 10K cells/well into 384-well polystyrene plates and then grown for 24 hs at 37° C. plus 5% CO2. After this time the media was aspirated using a Tecan plate washer and then replaced with 40 μL of dye loading buffer (130 mM NaCl, 5 mM KCl, 0.15 mM CaCl2, 1 mM MgCl2, 20 mM HEPES ((4-(2-hydroxyethyl)-1-piperazineethanesulfonic acid)), 5 mM NaHCO3). For TRPC6, a final concentration of 0.5× is used. Cells with membrane potential dye were then incubated for 30 mins at room temperature prior to beginning the experiments.
# To test the effects of compounds on TRPC6 activity, compounds were first diluted in 100% DMSO to 3× the final concentration to be used in the experiments. Typical dose-response experiments ranged from 10 μM (top concentration) to 0.5 nM (lowest concentration). Ten microliters of […] compound in 0.5% DMSO were added to 40 μL of cells incubated with membrane potential dye. Compound addition was performed on a FLIPRTetra or a FLIPR 384 (MDS Analytical Technologies, Molecular Devices, Sunnyvale, Calif., 94089, USA). After a 400 second incubation with compound, […] OAG (1-oleoyl-2-acetyl-sn-glycerol (OAG), Sigma, Gillingham, Dorset, SP8 4XT Cat #O6754-10 MG) was added at 5× the EC80 (typical EC80 for TRPC6=3 μM final). The OAG challenge is designed to measure the inhibitory activity of compounds on receptor-operated TRPC6 activation.
# as §2
# Chain of human TRPC3 ion channel (Q13507 whole entry): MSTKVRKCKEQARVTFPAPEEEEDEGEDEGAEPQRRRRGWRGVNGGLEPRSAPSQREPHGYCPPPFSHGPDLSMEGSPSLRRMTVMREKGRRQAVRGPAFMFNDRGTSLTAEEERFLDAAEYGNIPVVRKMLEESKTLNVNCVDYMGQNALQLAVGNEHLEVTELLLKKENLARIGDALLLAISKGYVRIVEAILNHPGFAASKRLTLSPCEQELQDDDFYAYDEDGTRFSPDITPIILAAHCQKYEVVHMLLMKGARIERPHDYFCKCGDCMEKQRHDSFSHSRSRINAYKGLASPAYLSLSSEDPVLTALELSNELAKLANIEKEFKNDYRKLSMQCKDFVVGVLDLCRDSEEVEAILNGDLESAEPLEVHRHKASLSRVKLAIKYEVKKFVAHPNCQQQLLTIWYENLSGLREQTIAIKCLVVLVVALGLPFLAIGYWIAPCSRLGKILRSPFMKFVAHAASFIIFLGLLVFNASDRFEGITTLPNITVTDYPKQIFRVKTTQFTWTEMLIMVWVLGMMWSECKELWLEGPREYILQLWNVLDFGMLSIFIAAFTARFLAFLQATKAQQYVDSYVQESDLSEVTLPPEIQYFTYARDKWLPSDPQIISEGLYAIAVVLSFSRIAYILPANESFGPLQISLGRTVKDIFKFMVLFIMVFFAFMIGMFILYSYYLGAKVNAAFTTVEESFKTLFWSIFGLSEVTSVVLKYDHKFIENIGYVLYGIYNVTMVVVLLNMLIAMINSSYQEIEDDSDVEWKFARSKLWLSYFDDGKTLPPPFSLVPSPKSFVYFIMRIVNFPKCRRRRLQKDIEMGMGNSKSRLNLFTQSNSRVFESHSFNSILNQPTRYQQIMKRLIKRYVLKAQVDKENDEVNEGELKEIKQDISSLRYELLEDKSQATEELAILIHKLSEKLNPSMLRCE
# Chain of human TRPC6 ion channel (Q9Y210 whole entry): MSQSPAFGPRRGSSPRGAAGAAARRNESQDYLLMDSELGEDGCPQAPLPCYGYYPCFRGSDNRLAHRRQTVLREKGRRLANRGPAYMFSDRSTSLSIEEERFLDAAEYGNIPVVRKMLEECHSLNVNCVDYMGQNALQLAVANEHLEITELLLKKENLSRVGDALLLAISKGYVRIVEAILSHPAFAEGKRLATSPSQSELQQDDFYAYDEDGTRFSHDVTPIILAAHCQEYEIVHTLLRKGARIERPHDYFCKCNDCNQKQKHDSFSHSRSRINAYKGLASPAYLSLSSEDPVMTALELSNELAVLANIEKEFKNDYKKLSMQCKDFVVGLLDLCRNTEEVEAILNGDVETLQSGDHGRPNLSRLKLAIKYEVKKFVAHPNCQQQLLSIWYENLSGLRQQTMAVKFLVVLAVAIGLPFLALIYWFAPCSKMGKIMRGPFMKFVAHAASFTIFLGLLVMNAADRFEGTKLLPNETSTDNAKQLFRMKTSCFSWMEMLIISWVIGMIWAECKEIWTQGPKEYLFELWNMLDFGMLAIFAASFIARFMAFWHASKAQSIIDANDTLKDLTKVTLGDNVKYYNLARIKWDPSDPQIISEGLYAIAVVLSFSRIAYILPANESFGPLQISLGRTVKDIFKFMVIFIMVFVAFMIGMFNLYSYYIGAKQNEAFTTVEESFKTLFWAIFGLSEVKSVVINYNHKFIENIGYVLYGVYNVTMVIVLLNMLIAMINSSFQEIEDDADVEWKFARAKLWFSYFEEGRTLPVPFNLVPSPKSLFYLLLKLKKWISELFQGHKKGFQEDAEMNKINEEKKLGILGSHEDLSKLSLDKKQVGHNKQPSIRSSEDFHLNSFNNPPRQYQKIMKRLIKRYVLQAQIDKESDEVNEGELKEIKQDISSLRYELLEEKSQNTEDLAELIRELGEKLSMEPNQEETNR
SMILES,IC50 (human TRPC3 ion channel) [nM],IC50 (human TRPC6 ion channel) [nM]
"NC1CCCN(C2CC(c3ccc(F)cc3)CC2Oc2cccnn2)C1 (stereo not shown) [Example 28, 1-[4-(4-fluorophenyl)-2-pyridazin-3-yloxy-cyclopentyl]piperidin-3-amine]",32.2,17.8
"NC1CC(F)CN(C2CC(c3ccc(F)cc3)CC2Oc2ccncn2)C1 (stereo not shown) [Example 29, 5-fluoro-1-[4-(4-fluorophenyl)-2-pyrimidin-4-yloxy-cyclopentyl]piperidin-3-amine]",3.68,3.44
"N#Cc1cnc(OC2CC(c3ccc(F)cc3)CC2N2CCCC(N)C2)nc1 (stereo not shown) [Example 30, 2-[2-(3-amino-1-piperidyl)-4-(4-fluorophenyl)cyclopentoxy]pyrimidine-5-carbonitrile]",24,11.5
"N#Cc1cnc(OC2CC(c3ccc(F)cc3)CC2N2CCCC(N)C2)cn1 (stereo not shown) [Example 31, 5-[2-(3-amino-1-piperidyl)-4-(4-fluorophenyl)cyclopentoxy]pyrazine-2-carbonitrile]",25.5,13.7
"N#Cc1ncc(OC2CC(c3ccc(F)cc3)CC2N2CCCC(N)C2)cn1 (stereo not shown) [Example 32, 5-[2-(3-amino-1-piperidyl)-4-(4-fluorophenyl)cyclopentoxy]pyrimidine-2-carbonitrile]",39.2,10.6
